This passage reports IC50 results from patent US11591336B2 (Relay Therapeutics, Inc., priority 2017, dated 2023).

Where a name gives a salt, the structure may show the parent alone.

The target in this assay is SHP2 (Homo sapiens (Human), UniProt Q06124). The assay can be described thus: SHP2 Allosteric Inhibition Assay (DiFMUP prompt fluorescence). In kind it is biochemical. The conditions noted are these: 0.25 nM SHP2 activated with 0.5 μM peptide IRS1_pY1172(dPEG8)pY1222; substrate DiFMUP 100 μM; 25° C.
Sequence of SHP2 (Q06124 whole entry): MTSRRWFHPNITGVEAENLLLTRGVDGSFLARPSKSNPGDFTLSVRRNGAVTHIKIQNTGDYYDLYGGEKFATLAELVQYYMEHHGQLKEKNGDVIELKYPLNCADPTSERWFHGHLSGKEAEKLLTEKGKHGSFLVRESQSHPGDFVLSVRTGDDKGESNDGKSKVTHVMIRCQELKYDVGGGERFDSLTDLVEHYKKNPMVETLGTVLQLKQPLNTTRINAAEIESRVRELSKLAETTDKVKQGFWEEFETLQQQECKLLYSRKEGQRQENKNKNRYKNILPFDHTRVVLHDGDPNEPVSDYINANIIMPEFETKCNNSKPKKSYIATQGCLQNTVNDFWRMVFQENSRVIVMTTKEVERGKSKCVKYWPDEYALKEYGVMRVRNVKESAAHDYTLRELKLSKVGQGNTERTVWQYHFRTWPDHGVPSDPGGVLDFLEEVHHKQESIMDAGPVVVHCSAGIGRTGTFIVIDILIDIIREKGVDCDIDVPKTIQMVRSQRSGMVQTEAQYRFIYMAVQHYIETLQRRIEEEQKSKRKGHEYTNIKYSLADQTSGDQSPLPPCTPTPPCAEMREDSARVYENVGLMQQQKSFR
In general, IC50 refers to the concentration needed to halve the response being measured. A lower IC50 goes with inhibition by little substance. As to `C[C@@H]1OCC2(CCN(c3cnc4c(N5CCC(C(F)F)c6cc(C#N)ccc65)n[nH]c4n3)CC2)[C@@H]1N` (stereo partly shown) [Compound 283], the IC50 is under 1000 nM.
In turn, `C[C@@H]1OCC2(CCN(c3cnc4c(N5CC[C@H](C)c6nc(-c7cnn(C)c7)ccc65)n[nH]c4n3)CC2)[C@@H]1N` [Compound 284, (3S,4S)-3-methyl-8-{3-[(4S)-4-methyl-6-(1-methyl-1H-pyrazol-4-yl)-1,2,3,4-tetrahydro-1,5-naphthyridin-1-yl]-1H-pyrazolo[3,4-b]pyrazin-6-yl}-2-oxa-8-azaspiro[4.5]decan-4-amine] returned an IC50 of under 1000 nM.
`C[C@@H]1OCC2(CCN(c3cnc4c(N5CCc6ccc(C#N)cc6C5)n[nH]c4n3)CC2)[C@@H]1N` [Compound 286] returned an IC50 of under 1000 nM.
Next, `CNC(=O)c1ccc2c(c1)[C@@H](C)CCN2c1n[nH]c2nc(N3CCC4(CC3)CO[C@@H](C)[C@H]4N)cnc12` [Compound 288, (4S)-1-{6-[(3S,4S)-4-amino-3-methyl-2-oxa-8-azaspiro[4.5]decan-8-yl]-1H-pyrazolo[3,4-b]pyrazin-3-yl}-N,4-dimethyl-1,2,3,4-tetrahydroquinoline-6-carboxamide]: under 1000 nM.
Turning to `C[C@@H]1OCC2(CCN(c3cnc4c(N5CCCc6c5ccnc6-c5cn[nH]c5)n[nH]c4n3)CC2)[C@@H]1N` [Compound 289], the IC50 is under 1000 nM.
Next, `Cn1cc(-c2ccc3c(n2)CCCN3c2n[nH]c3nc(N4CCC5(CC4)COC[C@H]5N)cnc23)cn1` [Compound 290]: under 1000 nM.
`C[C@@H]1OCC2(CCN(c3cnc4c(N5CCc6cnccc6C5)n[nH]c4n3)CC2)[C@@H]1N` [Compound 291] gave an IC50 of under 1000 nM.
In the case of `Cc1ccc2c(n1)CCCN2c1n[nH]c2nc(N3CCC4(CC3)CO[C@@H](C)[C@H]4N)cnc12` [Compound 292], the half-maximal inhibitory concentration (IC50) was under 1000 nM.
In turn, `C[C@@H]1OCC2(CCN(c3cnc4c(N5CCCc6nc(-c7ncco7)ccc65)n[nH]c4n3)CC2)[C@@H]1N` [Compound 295, (3S,4S)-3-methyl-8-(3-(6-(oxazol-2-yl)-3,4-dihydro-1,5-naphthyridin-1(2H)-yl)-1H-pyrazolo[3,4-b]pyrazin-6-yl)-2-oxa-8-azaspiro[4.5]decan-4-amine] came in with a 50% inhibitory concentration (IC50) of under 1000 nM.
Turning to `C[C@@H]1OCC2(CCN(c3cnc4c(N5CCNc6nc(-c7cnn(C)c7)ccc65)n[nH]c4n3)CC2)[C@@H]1N` [Compound 296, (3S,4S)-3-methyl-8-(3-(6-(1-methyl-1H-pyrazol-4-yl)-3,4-dihydropyrido[2,3-b]pyrazin-1(2H)-yl)-1H-pyrazolo[3,4-b]pyrazin-6-yl)-2-oxa-8-azaspiro[4.5]decan-4-amine], the IC50 was under 1000 nM.
Next, `C[C@@H]1OCC2(CCN(c3cnc4c(N5CCCc6nc(C(F)F)ccc65)n[nH]c4n3)CC2)[C@@H]1N` [Compound 297]: under 1000 nM.
For `Cn1cc(-c2ccc3c(n2)CCCN3c2n[nH]c3nc(N4CCC5(CCC[C@H]5N)CC4)cnc23)cn1` [Compound 298, (R)-8-(3-(6-(1-methyl-1H-pyrazol-4-yl)-3,4-dihydro-1,5-naphthyridin-1(2H)-yl)-1H-pyrazolo[3,4-b]pyrazin-6-yl)-8-azaspiro[4.5]decan-1-amine], the IC50 is under 1000 nM.
In turn, `C[C@H]1CCN(c2n[nH]c3nc(N4CCC5(CC4)COC[C@H]5N)cnc23)c2ccc(-c3ncon3)cc21` [Compound 299, (4S)-8-{3-[(4S)-4-methyl-6-(1,2,4-oxadiazol-3-yl)-1,2,3,4-tetrahydroquinolin-1-yl]-1H-pyrazolo[3,4-b]pyrazin-6-yl}-2-oxa-8-azaspiro[4.5]decan-4-amine] displayed an IC50 of under 1000 nM.
`C[C@@H]1OCC2(CCN(c3cnc4c(N5CCN(C)c6ncccc65)n[nH]c4n3)CC2)[C@@H]1N` [Compound 301] showed an IC50 of under 1000 nM.
The figure for `CC(=O)N1CCN(c2n[nH]c3nc(N4CCC5(CC4)CO[C@@H](C)[C@H]5N)cnc23)c2ccc(C#N)cc21` [Compound 302] is under 1000 nM; for `C[C@@H]1OCC2(CCN(c3cnc4c(N5CCCc6c5ccnc6-c5ccnn5C)n[nH]c4n3)CC2)[C@@H]1N` [Compound 303] it is under 1000 nM; for `C[C@@H]1OCC2(CCN(c3cnc4c(N5CCCc6nc(-c7cncnc7)ccc65)n[nH]c4n3)CC2)[C@@H]1N` [Compound 304] it is under 1000 nM.
As for `C[C@@H]1OCC2(CCN(c3cnc4c(N5CCCc6nc(-c7ccnnc7)ccc65)n[nH]c4n3)CC2)[C@@H]1N` [Compound 305], the IC50 is under 1000 nM.
Next, `CC(=O)NCc1ccc2c(n1)CCCN2c1n[nH]c2nc(N3CCC4(CC3)CO[C@@H](C)[C@H]4N)cnc12` [Compound 306, N-[(5-{6-[(3S,4S)-4-amino-3-methyl-2-oxa-8-azaspiro[4.5]decan-8-yl]-1H-pyrazolo[3,4-b]pyrazin-3-yl}-5,6,7,8-tetrahydro-1,5-naphthyridin-2-yl)methyl]acetamide dihydrochloride]: under 1000 nM; `C[C@@H]1OCC2(CCN(c3cnc4c(N5CCCc6c5ccnc6N5CCOCC5)n[nH]c4n3)CC2)[C@@H]1N` [Compound 307]: under 1000 nM.
`C[C@@H]1OCC2(CCN(c3cnc4c(N5CCCc6nc(-n7cnnc7)ccc65)n[nH]c4n3)CC2)[C@@H]1N` [Compound 308] gave an IC50 of under 1000 nM.
`C[C@@H]1OCC2(CCN(c3cnc4c(N5CCCc6nc(C7CCOC7)ccc65)n[nH]c4n3)CC2)[C@@H]1N` (stereo partly drawn) [Compound 309, (3S,4S)-3-methyl-8-(3-(6-(tetrahydrofuran-3-yl)-3,4-dihydro-1,5-naphthyridin-1(2H)-yl)-1H-pyrazolo[3,4-b]pyrazin-6-yl)-2-oxa-8-azaspiro[4.5]decan-4-amine]: the IC50 was under 1000 nM.
The figure for `C[C@@H]1OCC2(CCN(c3cnc4c(N5CCN(C)c6nc(-c7cnn(C)c7)ccc65)n[nH]c4n3)CC2)[C@@H]1N` [Compound 310, (3S,4S)-3-methyl-8-(3-(4-methyl-6-(1-methyl-1H-pyrazol-4-yl)-3,4-dihydropyrido[2,3-b]pyrazin-1(2H)-yl)-1H-pyrazolo[3,4-b]pyrazin-6-yl)-2-oxa-8-azaspiro[4.5]decan-4-amine] is under 1000 nM.
Take `CCCn1cc(-c2ccc3c(n2)CCCN3c2n[nH]c3nc(N4CCC5(CC4)CO[C@@H](C)[C@H]5N)cnc23)cn1` [Compound 311, (3S,4S)-3-methyl-8-{3-[6-(1-propyl-1H-pyrazol-4-yl)-1,2,3,4-tetrahydro-1,5-naphthyridin-1-yl]-1H-pyrazolo[3,4-b]pyrazin-6-yl}-2-oxa-8-azaspiro[4.5]decan-4-amine]: the concentration for half-maximal inhibition (IC50) is under 1000 nM.
Regarding `CC(C)n1cc(-c2ccc3c(n2)CCCN3c2n[nH]c3nc(N4CCC5(CC4)CO[C@@H](C)[C@H]5N)cnc23)cn1` [Compound 312, (3S,4S)-8-(3-(6-(1-isopropyl-1H-pyrazol-4-yl)-3,4-dihydro-1,5-naphthyridin-1(2H)-yl)-1H-pyrazolo[3,4-b]pyrazin-6-yl)-3-methyl-2-oxa-8-azaspiro[4.5]decan-4-amine], the IC50 was under 1000 nM.
Regarding `CNC(=O)N1CCN(c2n[nH]c3nc(N4CCC5(CC4)CO[C@@H](C)[C@H]5N)cnc23)c2ncccc21` [Compound 313, 4-{6-[(3S,4S)-4-amino-3-methyl-2-oxa-8-azaspiro[4.5]decan-8-yl]-1H-pyrazolo[3,4-b]pyrazin-3-yl}-N-methyl-1H,2H,3H,4H-pyrido[2,3-b]pyrazine-1-carboxamide], the IC50 lay in the range of 1000 to 10000 nM.
In turn, `C[C@@H]1OCC2(CCN(c3cnc4c(N5CCCc6nc(Oc7cnn(C)c7)ccc65)n[nH]c4n3)CC2)[C@@H]1N` [Compound 314] gave an IC50 of under 1000 nM.
`COc1ccc2c(n1)CCCN2c1n[nH]c2nc(N3CCC4(CC3)CO[C@@H](C)[C@H]4N)cnc12` [Compound 315] gave an IC50 of under 1000 nM.
With `C[C@@H]1OCC2(CCN(c3cnc4c(N5CCNc6cc(-c7cnn(C)c7)ccc65)n[nH]c4n3)CC2)[C@@H]1N` [Compound 316, (3S,4S)-3-methyl-8-{3-[6-(1-methyl-1H-pyrazol-4-yl)-1,2,3,4-tetrahydroquinoxalin-1-yl]-1H-pyrazolo[3,4-b]pyrazin-6-yl}-2-oxa-8-azaspiro[4.5]decan-4-amine], the IC50 was under 1000 nM.
The figure for `C[C@@H]1OCC2(CCN(c3cnc4c(N5CCCc6nc(-c7cnn(C(F)F)c7)ccc65)n[nH]c4n3)CC2)[C@@H]1N` [Compound 317] is under 1000 nM; for `C[C@@H]1OCC2(CCN(c3cnc4c(N5CCCc6nc(-c7cnco7)ccc65)n[nH]c4n3)CC2)[C@@H]1N` [Compound 318] it is under 1000 nM; for `Cc1nc(-c2ccc3c(n2)CCCN3c2n[nH]c3nc(N4CCC5(CC4)CO[C@@H](C)[C@H]5N)cnc23)no1` [Compound 319, (3S,4S)-3-methyl-8-(3-[6-(5-methyl-1,2,4-oxadiazol-3-yl)-1,2,3,4-tetrahydro-1,5-naphthyridin-1-yl]-1H-pyrazolo[3,4-b]pyrazin-6-yl)-2-oxa-8-azaspiro[4.5]decan-4-amine; formic acid] it is under 1000 nM.
On to `CCc1nc(-c2ccc3c(n2)CCCN3c2n[nH]c3nc(N4CCC5(CC4)CO[C@@H](C)[C@H]5N)cnc23)no1` [Compound 320, (3S,4S)-8-{3-[6-(5-ethyl-1,2,4-oxadiazol-3-yl)-1,2,3,4-tetrahydro-1,5-naphthyridin-1-yl]-1H-pyrazolo[3,4-b]pyrazin-6-yl}-3-methyl-2-oxa-8-azaspiro[4.5]decan-4-amine; formic acid], for which the IC50 was under 1000 nM.
The figure for `CC(C)c1nc(-c2ccc3c(n2)CCCN3c2n[nH]c3nc(N4CCC5(CC4)CO[C@@H](C)[C@H]5N)cnc23)no1` [Compound 321, (3S,4S)-3-methyl-8-(3-{6-[5-(propan-2-yl)-1,2,4-oxadiazol-3-yl]-1,2,3,4-tetrahydro-1,5-naphthyridin-1-yl}-1H-pyrazolo[3,4-b]pyrazin-6-yl)-2-oxa-8-azaspiro[4.5]decan-4-amine; formic acid] is under 1000 nM.
`C[C@@H]1OCC2(CCN(c3cnc4c(N5CC(=O)Nc6ncncc65)n[nH]c4n3)CC2)[C@@H]1N` [Compound 322] came in with an IC50 of 1000 to 10000 nM.
The figure for `CC(=O)N1CCN(c2n[nH]c3nc(N4CCC5(CC4)CO[C@@H](C)[C@H]5N)cnc23)c2ccc(-c3cnn(C)c3)cc21` [Compound 323] is under 1000 nM.
As to `C[C@@H]1OCC2(CCN(c3cnc4c(N5CCOc6nc(-c7cnn(C)c7)ccc65)n[nH]c4n3)CC2)[C@@H]1N` [Compound 324], the IC50 was under 1000 nM.
